Patent publication US9708292B2, “Cyanopyrimidine derivative” (OTSUKA PHARMACEUTICAL CO., LTD., priority 2009, dated 2017)
Where a name gives a salt, the structure may show the parent alone. Read-outs that look alike come from different tables or passages of the source. One block for each compound: values may come before it.

How the values were obtained:
[1] = target: T1, adenosine A2a receptor (Human) (Homo sapiens, UniProt P29274); assay: c-AMP generating action in cell expressing adenosine A2a receptor; assay type: cell-based
T1 construct: host or cells: HEK293
Protocol: Test 1: c-AMP Generating Action in Cell Expressing Adenosine A2a Receptor
The test was carried out as mentioned below with reference to the method disclosed in the reference (Klotz k. N. et al., Naunyn-Schmiedeberg's Arch. Pharmacol., (1998) 357, 1-9; Shryock J. C. et al., Molecular Pharmacology, (1998) 53, 886-893).
As to the cell to be used in the test, HEK293 cell expressing adenosine A2a receptor (Human) (PerkinElmer Life Sciences, Code No. RBHA2AC) was used.
As to the culture medium, Dulbecco's modified Eagles medium (DMEM) including 10% FBS (Fetal bovine serum) and 1 mM of sodium pyruvate was used.
The cell was placed on 96 well plate (1×10^5/well), and cultured overnight. After removing off the supernatant, 0.1 ml of DMEM (without FBS) containing 20 mM HEPES, 0.1 mM IBMX (3-isobutyl-1-methylxanthine) and 2 unit/mL adenosine deaminase were added to each well, and they were incubated at 37° C. for 30 minutes. Then, 0.1 ml of the culture medium containing the DMSO solution of the test compound in the predetermined concentration was added to each well, and they were incubated for additional 30 minutes. After removing off the supernatant, the cytolytic solution was added thereto to quench the reaction. The amount of c-AMP in each well was measured by using the c-AMP enzyme immunoassay (EIA) system (Amersham Biosciences, Code No. RPN225).
The same assay was repeated using CGS-21680 (2-p-carboxyethyl)phenethylamino-5′-N-ethylcarboxamidoadenosine hydrochloride, (Sigma, code C141) as a reference compound.
The amount of resultant c-AMP in the reference medium, caused by 1 μM of the reference compound, was defined to be 100%. The amount of resultant c-AMP in each test medium was measured, and the concentration producing 50% c-AMP amount was calculated based on the results of each test compound in the predetermined concentration, which is defined as EC50 value.

[2] = test system: Rabbit corneal epithelium cell; assay: Effect on corneal epithelium cell after UVA irradiation (neutral red uptake assay); assay type: cell-based; details: 60 min incubation, UVA 3.5 mW/cm^2 for 70 min, viability after 24 hours
Protocol: Test 2: Effect of the Compound of Example 1 to Corneal Epithelium Cell [Method]
Rabbit corneal epithelium cell (KURABO) was used as the cell for the test. To the rabbit corneal epithelium cell placed on 96 well plate was added the compound of Example 1, and the sample was incubated for 60 minutes. Then, the sample was irradiated with UVA (3.5 mW/cm^2) for 70 minutes using a solar simulator (SOL500). After that, the cell was washed with a buffer. After 24 hours, the cell viability was evaluated by the neutral red uptake assay.

ciliary artery = assay: Vascular relaxation of isolated ciliary artery contracted with High K+-krebs solution; design: species or system Rabbits
Protocol: Rabbits were sacrificed with an overdose of sodium pentobarbital by intravenous administration. The eyes were enucleated and ciliary arteries were isolated. Vascular rings were cut 2 mm in length from ciliary arteries and set to Danish Multi Myograph System 610M (Danish myo technology) under microscopic observation. The vessels were equilibrated in oxygenated krebs solution with 5% CO2 and 95% O2 at 37° C.
To confirm the endothelium damage of vessels, the relaxation of ciliary artery by 100 μM carbachol was tested. If relaxation by carbachol was more than 30%, the vessels whose endothelium had no damage were used for the experiments.
After ciliary artery was contracted with High K^+-krebs solution, the compound of Example 1 was serially administrated to chamber from 0.3 μM to 300 μM. The tension was measured by Myodaq ver 2.01 (Danish myo technology).

[3] = test system: retinal ganglion cell (RGC); assay: Neuroprotection: cell survival of purified retinal ganglion cells; assay type: cell-based, Long Evans rat; details: five days of culture, control = 0%, BDNF (50 ng/mL) = 100%, Mean ± SE
Protocol: This experiment was performed according to a method reported by Otori et al. (Invest Opthalmol Vis Sci. 39: 972-981, 1998).
Eyes were enucleated from 7 day old Long Evans rat. Retinas were isolated from the eyes. The retinas were dissociated by incubating with Neurobasal medium including 15 U/mL papain at 37° C. for 30 minutes. The retinal suspension was prepared.
The retinal suspension was incubated in anti-SIRP antibody (Chemicon)-coated flask at room temperature for 30 minutes. The non adherent cells were placed in anti-thy-1 antibody (Chemicon)-coated flask. The cells were incubated at room temperature for 30 minutes. Finally the adherent cells in flask were washed with Neurobasal medium. After centrifugation at 800 rpm for 5 minutes, the purified RGC was prepared. The cells were seeded on glass coverslips that had been coated with poly-L-lysine and laminin. The purified RGC were cultured in Neurobasal medium containing B27 supplement, 1 mM glutamine 50 ng/mL CNTF, 10 μM Forskolin. Culture was maintained at 37° C. in humidified atmosphere containing 5% CO2 and 95%, air. BDNF (50 ng/mL) or the compound of Example 1 at final concentration of 0 nM (control), 3 nM, 10 nM or 30 nM was administered immediately after cell seeding.
Cell survival (cell viability) was determined by counting stained RGC. Five days after culture started, RGC were stained with 1 μM Calcein-AM (Molecular probe). The number of RGC was counted using fluorescence microscope. The percentage of cell survival (cell viability) was calculated by using the counts of control group as 0%, and the counts of BDNF group as 100%.
The cell survival was calculated by using the counts of control groups as 0% and the counts of BDNF groups as 100%.

[4] = HEK293 cell expressing human adenosine A2a receptor, c-AMP by 1 μM CGS-21680 defined as 100%, read-out: A2a agonistic activity (EC50)

T1 sequence (P29274 whole entry): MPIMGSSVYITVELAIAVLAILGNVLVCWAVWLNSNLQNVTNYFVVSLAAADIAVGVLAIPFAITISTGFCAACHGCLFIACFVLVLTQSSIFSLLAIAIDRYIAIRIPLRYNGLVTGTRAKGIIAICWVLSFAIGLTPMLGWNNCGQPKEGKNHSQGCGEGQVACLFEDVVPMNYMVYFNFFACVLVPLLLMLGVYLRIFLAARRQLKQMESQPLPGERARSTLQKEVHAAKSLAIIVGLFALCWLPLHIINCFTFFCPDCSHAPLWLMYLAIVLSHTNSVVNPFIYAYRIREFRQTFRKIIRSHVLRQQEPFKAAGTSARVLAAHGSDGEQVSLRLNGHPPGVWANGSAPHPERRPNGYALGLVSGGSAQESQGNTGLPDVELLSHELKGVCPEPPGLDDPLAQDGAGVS

EC50 [1, 4]: 3.3 nM
EC50 (ciliary artery; Oryctolagus cuniculus, rabbit ciliary artery rings, High K+ contraction): 17000 nM
Structure (SMILES): CC(=O)Nc1ccc(-c2nc(SCc3cccc(CCC(=O)N4CCN(CC5CCNCC5)CC4)n3)nc(N)c2C#N)cc1 [Example 1, N-(4-(6-amino-5-cyano-2-((6-(3-oxo-3-(4-(piperidin-4-yl-methyl)piperazin-1-yl)propyl)pyridin-2-yl)methylthio)-pyrimidin-4-yl)phenyl)acetamide trihydrochloride]
cell viability ([2]; 0.25 mM): 106.3%
cell viability ([2]; 0.5 mM): 115.0%
cell viability ([2]; 1 mM): 100.7%
Relaxation (%) (ciliary artery; 0.3 μM): 2.6 ± 0.5%
Relaxation (%) (ciliary artery; 1 μM): 4.8 ± 1.2%
Relaxation (%) (ciliary artery; 3 μM): 7.9 ± 2.3%
Relaxation (%) (ciliary artery; 10 μM): 35.3 ± 14.4%
Relaxation (%) (ciliary artery; 30 μM): 65.6 ± 9.5%
Relaxation (%) (ciliary artery; 100 μM): 82.4 ± 3.7%
Relaxation (%) (ciliary artery; 300 μM): 90.1 ± 2.4%
Cell survival (%) ([3]; 3 nM): 10.9 ± 7.0%
Cell survival (%) ([3]; 10 nM): 46.5 ± 7.0%
Cell survival (%) ([3]; 30 nM): 41.9 ± 5.5%

Structure (SMILES): CC(=O)Nc1ccc(-c2nc(SCc3cccc(CCC(=O)N4CCN(CC5CCN(CCF)CC5)CC4)n3)nc(N)c2C#N)cc1 [Example 4, N-(4-(6-amino-5-cyano-2-((6-(3-(4-((1-(2-fluoroethyl)-piperidin-4-yl)methyl)piperazin-1-yl)-3-oxopropyl)pyridin-2-yl)methylthio)pyrimidin-4-yl)phenyl)acetamide]
EC50 [1]: 6.1 nM

EC50 [1, 4]: 1.8 nM
Structure (SMILES): CC(=O)Nc1ccc(-c2nc(SCc3cccc(CCC(=O)N4CCN(CC5CCN(CCCO)CC5)CC4)n3)nc(N)c2C#N)cc1 [Example 3, N-(4-(6-amino-5-cyano-2-((6-(3-(4-((1-(3-hydroxy-propyl)piperidin-4-yl)methyl)piperazin-1-yl)-3-oxopropyl)-pyridin-2-yl)methylthio)pyrimidin-4-yl)phenyl)acetamide]

EC50 [1, 4]: 8.4 nM
Structure (SMILES): COC(=O)CCN1CCC(CN2CCN(C(=O)CCc3cccc(CSc4nc(N)c(C#N)c(-c5ccc(NC(C)=O)cc5)n4)n3)CC2)CC1 [Example 5, N-(4-(6-amino-5-cyano-2-((6-(3-(4-((1-(2-methoxy-carbonylethyl)piperidin-4-yl)methyl)piperazin-1-yl)-3-oxopropyl)pyridin-2-yl)methylthio)pyrimidin-4-yl)phenyl)-acetamide]

EC50 [1, 4]: 2.9 nM
Structure (SMILES): CC(=O)Nc1ccc(-c2nc(SCc3cccc(CCC(=O)N4CCN(CC5CCN(CCO)CC5)CC4)n3)nc(N)c2C#N)cc1 [Example 2, N-(4-(6-amino-5-cyano-2-((6-(3-(4-((1-(2-hydroxyethyl)-piperidin-4-yl)methyl)piperazin-1-yl)-3-oxopropyl)pyridin-2-yl)methylthio)pyrimidin-4-yl)phenyl)acetamide maleate]
